Data published in ChEMBL document CHEMBL1201862, “PubChem BioAssay data set” (2004).
Several values for one entry are separate records, joined by “and”; a condition that tells them apart may be missing. Equal entries are not always repeated. Activity calls are given as the source filed them.

Columns and labels:
[1] = viability of PTEN-deleted HCT116 cells – cell-based, HCT116 PTEN knockout, dose response (AID 1047); format: functional;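 further: HCT116 colon tumor cells with PTEN knocked out; cells exposed to compound for 60 hours before readout; potency for loss of cell viability measured by luminescence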
[2] = viability of HCT116 lacking mutant beta-catenin – cell-based, human colon tumor, dose response (AID 1045); format: functional;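 further: HCT116 colon tumor cells with beta catenin knocked out; cells exposed to compound for 60 hours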
[3] = target: T1, Apoptotic protease-activating factor 1 (Homo sapiens, UniProt O14727); assay: activation of Apaf-1 mediated apoptosis – fluorescent, uHTS hits, dose response (AID 588554); format: functional
T1 sequence (O14727 whole entry): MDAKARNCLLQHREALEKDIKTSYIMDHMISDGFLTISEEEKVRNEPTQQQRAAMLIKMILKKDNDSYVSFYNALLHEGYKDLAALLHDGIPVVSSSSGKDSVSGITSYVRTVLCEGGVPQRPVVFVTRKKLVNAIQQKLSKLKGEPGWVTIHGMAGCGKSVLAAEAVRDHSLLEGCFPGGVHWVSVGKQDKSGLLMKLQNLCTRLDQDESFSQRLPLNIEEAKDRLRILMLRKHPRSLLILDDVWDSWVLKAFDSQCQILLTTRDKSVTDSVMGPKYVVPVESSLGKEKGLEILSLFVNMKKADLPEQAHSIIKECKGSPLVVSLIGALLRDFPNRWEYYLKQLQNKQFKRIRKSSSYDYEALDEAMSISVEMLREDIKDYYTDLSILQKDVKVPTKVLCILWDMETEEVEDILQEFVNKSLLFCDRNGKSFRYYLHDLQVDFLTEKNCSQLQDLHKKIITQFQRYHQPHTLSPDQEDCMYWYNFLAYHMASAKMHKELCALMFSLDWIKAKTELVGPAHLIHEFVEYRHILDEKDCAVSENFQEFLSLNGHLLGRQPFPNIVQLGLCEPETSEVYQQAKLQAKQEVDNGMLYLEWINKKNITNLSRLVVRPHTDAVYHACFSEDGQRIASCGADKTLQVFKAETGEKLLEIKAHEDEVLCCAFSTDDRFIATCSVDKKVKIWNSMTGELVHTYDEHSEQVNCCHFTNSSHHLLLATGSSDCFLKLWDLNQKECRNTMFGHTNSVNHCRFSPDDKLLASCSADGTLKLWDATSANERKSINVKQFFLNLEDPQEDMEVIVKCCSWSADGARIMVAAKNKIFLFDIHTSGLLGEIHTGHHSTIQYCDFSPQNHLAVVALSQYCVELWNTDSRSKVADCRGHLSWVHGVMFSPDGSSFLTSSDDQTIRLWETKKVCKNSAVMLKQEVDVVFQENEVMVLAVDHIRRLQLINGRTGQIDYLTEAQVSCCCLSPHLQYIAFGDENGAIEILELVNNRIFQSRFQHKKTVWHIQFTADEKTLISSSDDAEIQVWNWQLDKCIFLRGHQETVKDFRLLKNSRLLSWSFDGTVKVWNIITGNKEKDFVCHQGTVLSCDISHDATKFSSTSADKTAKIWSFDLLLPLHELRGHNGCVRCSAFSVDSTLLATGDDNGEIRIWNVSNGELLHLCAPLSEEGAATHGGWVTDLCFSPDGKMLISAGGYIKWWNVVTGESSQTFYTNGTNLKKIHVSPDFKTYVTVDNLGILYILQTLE

[4] = target: Cytochrome P450 2C19 (Homo sapiens, UniProt P33261); assay: Cytochrome panel assay with activity outcomes. Panel member name: p450-cyp2c19 Compounds with AC50 equal or less than 10 uM are considered active; format: functional; conditions: read-out: AC50
[5] = restored growth of temperature-sensitive Burl-1 yeast – whole organism, S. cerevisiae, Burl-1 ts mutant, luminescence, counter-screen for SUMOylation pathway inhibitor project, dose response (AID 463199); format: functional
[6] = target: T2, Cytochrome P450 2D6 (Homo sapiens, UniProt P10635);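 further: CYP2D6 member of a cytochrome P450 panel assay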
[7] = target: T2, Cytochrome P450 2D6; remark: listed apart in the source
[8] = target: Hexokinase-1 (Homo sapiens, UniProt P19367); assay: hexokinase 1 activity inhibitors, potency – biochemical, set 2, resazurin fluorescence coupled readout, selectivity assay for HKDC1 inhibitor project, SAR follow-up (AID 588356); format: functional
[9] = target: T3, Hexokinase HKDC1 (Homo sapiens, UniProt Q2TB90); assay: analog inhibition of human HKDC1 activity – biochemical, set 2, SAR follow-up (AID 588355); format: functional
T3 sequence (Q2TB90 whole entry): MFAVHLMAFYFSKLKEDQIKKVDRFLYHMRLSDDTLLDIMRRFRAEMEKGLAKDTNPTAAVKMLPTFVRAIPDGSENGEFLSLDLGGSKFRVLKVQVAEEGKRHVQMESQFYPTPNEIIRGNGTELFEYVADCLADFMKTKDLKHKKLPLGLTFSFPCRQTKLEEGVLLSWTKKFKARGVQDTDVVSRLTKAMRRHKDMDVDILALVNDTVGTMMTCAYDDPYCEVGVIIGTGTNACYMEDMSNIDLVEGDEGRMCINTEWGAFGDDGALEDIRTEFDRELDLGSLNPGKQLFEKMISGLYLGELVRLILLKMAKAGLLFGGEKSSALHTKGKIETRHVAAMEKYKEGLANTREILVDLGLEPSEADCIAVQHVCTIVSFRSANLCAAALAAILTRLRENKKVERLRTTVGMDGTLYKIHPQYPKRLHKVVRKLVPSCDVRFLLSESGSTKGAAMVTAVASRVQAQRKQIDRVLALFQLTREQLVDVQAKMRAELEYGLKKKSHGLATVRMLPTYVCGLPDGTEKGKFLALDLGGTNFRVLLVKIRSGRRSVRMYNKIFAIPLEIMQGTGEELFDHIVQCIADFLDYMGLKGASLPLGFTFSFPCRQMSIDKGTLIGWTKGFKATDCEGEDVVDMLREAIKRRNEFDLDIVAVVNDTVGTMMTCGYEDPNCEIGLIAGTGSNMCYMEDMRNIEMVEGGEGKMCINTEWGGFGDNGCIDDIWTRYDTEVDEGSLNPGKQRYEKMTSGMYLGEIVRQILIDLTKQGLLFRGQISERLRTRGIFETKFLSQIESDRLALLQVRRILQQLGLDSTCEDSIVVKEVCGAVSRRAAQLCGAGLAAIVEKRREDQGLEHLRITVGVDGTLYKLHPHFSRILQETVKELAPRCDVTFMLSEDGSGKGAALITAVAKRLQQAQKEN

[10] = target: T4, Cytochrome P450 1A2 (Homo sapiens, UniProt P05177);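 further: PubChem cytochrome P450 panel assay, CYP1A2 panel member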
T4 sequence (P05177 whole entry): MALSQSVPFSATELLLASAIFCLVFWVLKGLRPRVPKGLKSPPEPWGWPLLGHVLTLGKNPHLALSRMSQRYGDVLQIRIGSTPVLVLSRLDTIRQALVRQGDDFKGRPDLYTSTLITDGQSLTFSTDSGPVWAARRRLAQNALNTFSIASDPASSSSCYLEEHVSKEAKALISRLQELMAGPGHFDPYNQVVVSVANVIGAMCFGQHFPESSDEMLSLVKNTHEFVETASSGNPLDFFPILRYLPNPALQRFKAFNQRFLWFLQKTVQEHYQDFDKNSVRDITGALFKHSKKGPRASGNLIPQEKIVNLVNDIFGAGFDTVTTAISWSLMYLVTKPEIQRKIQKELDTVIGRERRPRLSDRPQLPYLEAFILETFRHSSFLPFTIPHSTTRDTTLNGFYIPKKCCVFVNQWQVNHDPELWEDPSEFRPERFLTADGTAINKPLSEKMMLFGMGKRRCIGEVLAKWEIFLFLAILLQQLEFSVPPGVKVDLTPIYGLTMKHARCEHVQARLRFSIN

[11] = HEK-293T viability loss after treatment – luminescence, T-cell screen hits, cytotoxicity control for TCR NF-kB inhibitor project, dose response (AID 489026); format: functional, cell-based;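 further: cells exposed to compound about 14 hours before the viability readout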
[12] = target: T5, Microphthalmia-associated transcription factor (Homo sapiens, UniProt O75030); assay: reducers of TRPM1 reporter luminescence, concentration series – cell-based, SK-MEL-5, cherry-picked, set 3, MITF inhibitor project, dose response (AID 493073); format: functional;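 further: SK-MEL-5 melanoma cells with luciferase driven by the MITF target TRPM1 promoter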
T5 sequence (O75030 whole entry): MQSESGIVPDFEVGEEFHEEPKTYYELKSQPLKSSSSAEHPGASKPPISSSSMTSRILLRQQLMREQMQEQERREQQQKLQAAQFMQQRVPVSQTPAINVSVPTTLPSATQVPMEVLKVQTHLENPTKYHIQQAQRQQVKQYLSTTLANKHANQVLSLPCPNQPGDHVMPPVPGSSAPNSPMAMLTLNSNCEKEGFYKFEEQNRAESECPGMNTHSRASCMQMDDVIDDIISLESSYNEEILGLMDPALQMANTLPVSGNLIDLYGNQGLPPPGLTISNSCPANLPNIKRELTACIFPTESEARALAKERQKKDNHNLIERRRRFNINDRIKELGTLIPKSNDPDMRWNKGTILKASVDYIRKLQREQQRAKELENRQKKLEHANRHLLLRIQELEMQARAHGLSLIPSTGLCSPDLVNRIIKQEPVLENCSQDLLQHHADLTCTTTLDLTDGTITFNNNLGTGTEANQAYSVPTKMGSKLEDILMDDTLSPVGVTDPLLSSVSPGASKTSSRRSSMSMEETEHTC

[13] = test system: HEK293; assay: HEK293T cell viability loss, resazurin readout – resazurin fluorescence, cytotoxicity control for NF-kB activator project, SAR follow-up (AID 493251); format: functional, cell-based; conditions: Homo sapiens
[14] = test system: Jurkat; assay: SAR Analysis of small molecule inhibitors of T-cell specific antigen receptor-induced NF-kB activation in a Jurkat cell line using a luminescence assay - Set 2. [Related pubchem assays (depositor defined):AID435003, AID435012, AID465]; format: functional, cell-based; conditions: Homo sapiens
[15] = test system: HEK293; assay: SAR Analysis of small molecule inhibitors of T-cell specific antigen receptor-induced NF-kB activation in a HEK-293T cell line using a luminescence assay - Set 2. [Related pubchem assays (depositor defined):AID435003, AID435012, AID489026]; format: functional, cell-based; conditions: Homo sapiens
[16] = target: T6, Mannose-6-phosphate isomerase (Homo sapiens, UniProt P34949); assay: phosphomannose isomerase inhibition – biochemical, fluorescence intensity, confirmation (AID 1535)
T6 sequence (P34949 whole entry): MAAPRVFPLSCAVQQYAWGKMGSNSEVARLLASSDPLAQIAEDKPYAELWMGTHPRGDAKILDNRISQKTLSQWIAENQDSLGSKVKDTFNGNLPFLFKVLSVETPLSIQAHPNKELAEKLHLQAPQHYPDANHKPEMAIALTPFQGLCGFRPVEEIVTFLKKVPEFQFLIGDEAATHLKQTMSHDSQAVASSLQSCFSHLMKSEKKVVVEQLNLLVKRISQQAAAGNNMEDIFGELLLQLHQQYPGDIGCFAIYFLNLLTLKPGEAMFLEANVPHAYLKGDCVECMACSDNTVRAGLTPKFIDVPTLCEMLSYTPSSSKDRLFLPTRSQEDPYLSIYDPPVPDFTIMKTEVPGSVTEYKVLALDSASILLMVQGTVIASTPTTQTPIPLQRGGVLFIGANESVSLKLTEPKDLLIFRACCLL

[17] = target: Phosphomannomutase 2 (Homo sapiens, UniProt O15305); assay: Counter screen SAR assay for PMM2 inhibitors via a fluorescence intensity assay. [Related pubchem assays (depositor defined):AID1545, AID1574]
Phosphomannomutase 2, sequence (O15305 whole entry): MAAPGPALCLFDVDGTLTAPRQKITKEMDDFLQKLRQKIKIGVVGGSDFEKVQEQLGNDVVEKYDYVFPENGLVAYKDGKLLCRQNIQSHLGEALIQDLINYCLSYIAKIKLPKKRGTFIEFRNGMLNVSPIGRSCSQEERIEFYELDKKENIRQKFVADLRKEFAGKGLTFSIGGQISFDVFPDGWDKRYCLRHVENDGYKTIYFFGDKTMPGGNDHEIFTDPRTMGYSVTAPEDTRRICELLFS

T2 sequence (P10635 whole entry): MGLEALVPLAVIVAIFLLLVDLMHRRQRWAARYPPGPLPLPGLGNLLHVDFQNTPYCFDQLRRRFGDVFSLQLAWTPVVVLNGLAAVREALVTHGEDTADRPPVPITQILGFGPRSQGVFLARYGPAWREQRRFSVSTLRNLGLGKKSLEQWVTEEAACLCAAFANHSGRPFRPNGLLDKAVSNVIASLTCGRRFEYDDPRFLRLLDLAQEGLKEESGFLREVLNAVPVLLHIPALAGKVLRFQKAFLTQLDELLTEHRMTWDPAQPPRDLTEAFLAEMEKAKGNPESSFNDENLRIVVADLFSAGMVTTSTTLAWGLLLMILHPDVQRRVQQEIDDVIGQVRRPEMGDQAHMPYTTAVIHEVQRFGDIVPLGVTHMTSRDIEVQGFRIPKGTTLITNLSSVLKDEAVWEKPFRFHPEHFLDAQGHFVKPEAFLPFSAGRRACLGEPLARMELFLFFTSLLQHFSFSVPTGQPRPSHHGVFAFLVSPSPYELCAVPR
Hexokinase-1, sequence (P19367 whole entry): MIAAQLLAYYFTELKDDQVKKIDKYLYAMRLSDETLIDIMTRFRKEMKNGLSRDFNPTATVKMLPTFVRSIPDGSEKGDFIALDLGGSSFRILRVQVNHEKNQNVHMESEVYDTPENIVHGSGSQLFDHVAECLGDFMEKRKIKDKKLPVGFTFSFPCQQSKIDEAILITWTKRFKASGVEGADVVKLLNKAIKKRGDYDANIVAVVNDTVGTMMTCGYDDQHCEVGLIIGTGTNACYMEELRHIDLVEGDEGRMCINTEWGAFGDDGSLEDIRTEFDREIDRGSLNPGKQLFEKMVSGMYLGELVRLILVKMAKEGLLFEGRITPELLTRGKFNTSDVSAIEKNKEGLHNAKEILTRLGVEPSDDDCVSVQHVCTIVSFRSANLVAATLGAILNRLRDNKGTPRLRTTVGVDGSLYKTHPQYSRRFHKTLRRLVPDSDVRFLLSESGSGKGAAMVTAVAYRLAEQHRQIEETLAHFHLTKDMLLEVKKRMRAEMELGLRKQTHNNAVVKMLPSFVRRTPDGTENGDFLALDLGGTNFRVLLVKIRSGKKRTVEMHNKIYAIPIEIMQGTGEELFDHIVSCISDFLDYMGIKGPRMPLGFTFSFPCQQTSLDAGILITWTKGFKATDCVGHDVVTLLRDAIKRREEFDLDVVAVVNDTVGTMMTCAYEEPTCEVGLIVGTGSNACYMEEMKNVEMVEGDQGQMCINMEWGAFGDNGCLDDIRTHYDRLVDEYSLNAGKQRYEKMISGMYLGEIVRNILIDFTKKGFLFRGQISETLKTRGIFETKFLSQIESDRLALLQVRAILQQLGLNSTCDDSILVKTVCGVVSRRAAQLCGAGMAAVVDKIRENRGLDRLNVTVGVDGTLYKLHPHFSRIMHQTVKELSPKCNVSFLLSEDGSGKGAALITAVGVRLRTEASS
Cytochrome P450 2C19, sequence (P33261 whole entry): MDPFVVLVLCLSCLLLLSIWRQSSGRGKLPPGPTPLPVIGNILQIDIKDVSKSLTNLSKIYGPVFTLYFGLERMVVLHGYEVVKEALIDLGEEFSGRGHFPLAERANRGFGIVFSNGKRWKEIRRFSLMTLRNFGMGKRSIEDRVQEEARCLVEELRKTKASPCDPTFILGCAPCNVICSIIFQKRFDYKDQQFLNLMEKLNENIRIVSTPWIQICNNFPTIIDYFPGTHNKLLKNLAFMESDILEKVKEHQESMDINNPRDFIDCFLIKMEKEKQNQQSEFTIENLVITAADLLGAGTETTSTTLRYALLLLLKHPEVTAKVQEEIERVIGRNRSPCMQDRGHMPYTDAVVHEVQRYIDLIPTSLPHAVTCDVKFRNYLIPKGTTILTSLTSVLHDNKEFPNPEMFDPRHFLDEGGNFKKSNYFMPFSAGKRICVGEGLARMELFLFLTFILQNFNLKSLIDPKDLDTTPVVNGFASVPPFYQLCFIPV

SMILES: CCOc1ccc(C(=O)/C=C/Nc2ccc(S(=O)(=O)N=C(N)N)cc2)cc1
- EC50 [1]: 16.3 µM (active)
- EC50 [2]: 21.8 µM (active)
- EC50 [3]: 6.28 µM (active)

SMILES: Cc1ccc(S(=O)(=O)N2CCOCC2)cc1NC(=O)COC(=O)CCC(=O)c1cccs1
- AC50 [4]: 39.8 µM (inconclusive)
- AC50 [5]: 87.5 µM (active)
- AC50 [6]: 31.6 µM (inconclusive)

SMILES: Cc1ncc([N+](=O)[O-])n1CC(C)O (stereo not drawn) [SECNIDAZOLE]
- AC50 [7]: inconclusive

SMILES: COc1cc2c(cc1OC)-c1cc(NCCN(C)C)nc(=O)n1CC2
- IC50 [8]: > 80 µM (inactive)
- IC50 [9]: > 80 µM (inactive)

SMILES: Cc1cccc(C)c1N=C1NCCCS1 [XYLAZINE]
- AC50 [6]: 39.8 µM (inconclusive) and 10 µM (inconclusive)
- AC50 [10]: inactive

SMILES: Cc1cc(C)cc(NC(=O)c2ccc([N+](=O)[O-])o2)c1
- IC50 [11]: > 80 µM (inactive)
- AC50 [12]: 16.6 µM (active)
- IC50 [13]: 43.4 µM (inactive)
- IC50 [14]: 0.85 µM (active)
- IC50 [15]: 21.8 µM (inactive)

SMILES: OCc1ccccc1/N=c1\ssnc1Cl
- IC50 [16]: 35.8 µM (active)
- IC50 [17]: > 100 µM (inactive)
